± gives the expanded uncertainty stated by the source.
Tests used:
[1] = Liquid; for mass density: 298.15 K, 101.33 kPa, Vibrating tube method; for Normal boiling temperature: Ebulliometric method (Recirculating still)
[2] = refractive index (Na D-line) (dimensionless); details: 298.15 K; 101.33 kPa; Liquid; Standard Abbe refractometry
[3] = xn = mol fraction of the nth substance listed; details: 298.15 K, 101.33 kPa, Liquid, Vibrating tube method
[4] = excess molar enthalpy (molar enthalpy of mixing); xn = mol fraction of the nth substance listed; details: 298.15 K, 101.33 kPa, Liquid, Calvet calorimetry

CCCCCCC [heptane]
Details	Normal boiling temperature [°C]	mass density [kg/m3]	refractive index
[1]	98.20 ± 0.49	679.3 ± 0.45	–
[2]	–	–	1.3853 ± 0.0007

CCCC(=O)OC [methyl butanoate]
Details	Normal boiling temperature [°C]	mass density [kg/m3]	refractive index
[1]	102.38 ± 0.2	892.52 ± 0.46	–
[2]	–	–	1.3852 ± 0.0008

CCCC(=O)OC [methyl butanoate] + CCCCCCC
[3]
Details	mass density [kg/m3]
x1 = 0.0337	684.36 ± 0.67
x1 = 0.0689	689.75 ± 0.68
x1 = 0.102	694.93 ± 0.7
x1 = 0.1531	703.25 ± 0.73
x1 = 0.2487	719.6 ± 0.76
x1 = 0.3261	733.58 ± 0.8
x1 = 0.3824	744.29 ± 0.84
x1 = 0.4586	759.5 ± 0.88
x1 = 0.5333	775.25 ± 0.93
x1 = 0.6085	791.88 ± 0.97
x1 = 0.6618	804.18 ± 1
x1 = 0.7161	817.1 ± 1.1
x1 = 0.7869	834.67 ± 1.1
x1 = 0.8394	848.24 ± 1.1
x1 = 0.8882	861.22 ± 1.2
x1 = 0.9255	871.41 ± 1.2

COC(C)=O [methyl ethanoate]
Details	Normal boiling temperature [°C]	mass density [kg/m3]	refractive index
[1]	56.70 ± 0.2	927.14 ± 0.47	–
[2]	–	–	1.3589 ± 0.0008

COC(C)=O [methyl ethanoate] + CCCCCCC
[3]
Details	mass density [kg/m3]
x1 = 0.0676	686.77 ± 0.36
x1 = 0.1019	690.81 ± 0.37
x1 = 0.1594	698.12 ± 0.39
x1 = 0.2497	710.82 ± 0.42
x1 = 0.3137	721.1 ± 0.46
x1 = 0.4011	736.76 ± 0.49
x1 = 0.4829	753.42 ± 0.54
x1 = 0.5498	768.76 ± 0.59
x1 = 0.6215	786.97 ± 0.64
x1 = 0.6765	802.41 ± 0.69
x1 = 0.7204	815.61 ± 0.74
x1 = 0.7841	836.35 ± 0.79
x1 = 0.8342	854.72 ± 0.86
x1 = 0.8837	873.99 ± 0.92
x1 = 0.9248	891.52 ± 0.99
x1 = 0.9632	908.98 ± 1

COC=O [methyl methanoate]
Details	Normal boiling temperature [°C]	mass density [kg/m3]	refractive index
[1]	31.64 ± 0.2	966.18 ± 0.49	–
[2]	–	–	1.3412 ± 0.0008

COC=O [methyl methanoate] + CCCCCCC
Details	excess molar enthalpy [kJ/mol]	mass density [kg/m3]
[3], x1 = 0.042	–	682.76 ± 0.3
[3], x1 = 0.1206	–	689.96 ± 0.33
[3], x1 = 0.2235	–	702.15 ± 0.38
[3], x1 = 0.3614	–	723.34 ± 0.44
[3], x1 = 0.4593	–	741.73 ± 0.51
[3], x1 = 0.5364	–	759.27 ± 0.59
[3], x1 = 0.6079	–	778.2 ± 0.66
[3], x1 = 0.6651	–	795.64 ± 0.78
[3], x1 = 0.7799	–	837.8 ± 0.87
[3], x1 = 0.8321	–	861.36 ± 1
[3], x1 = 0.8729	–	882.18 ± 1.2
[3], x1 = 0.911	–	904.19 ± 1.3
[3], x1 = 0.946	–	926.26 ± 1.4
[3], x1 = 0.9736	–	945.92 ± 1.6
[3], x1 = 0.9935	–	961.3 ± 1.6
[4], x1 = 0.0673	0.514 ± 0.016	–
[4], x1 = 0.1535	1.12 ± 0.019	–
[4], x1 = 0.2499	1.69 ± 0.023	–
[4], x1 = 0.3332	2.02 ± 0.026	–
[4], x1 = 0.4008	2.18 ± 0.027	–
[4], x1 = 0.4555	2.25 ± 0.028	–
[4], x1 = 0.5004	2.29 ± 0.028	–
[4], x1 = 0.5354	2.28 ± 0.028	–
[4], x1 = 0.5709	2.28 ± 0.028	–
[4], x1 = 0.6389	2.18 ± 0.027	–
[4], x1 = 0.6745	2.12 ± 0.027	–
[4], x1 = 0.7144	2 ± 0.026	–
[4], x1 = 0.7527	1.89 ± 0.025	–
[4], x1 = 0.794	1.72 ± 0.024	–
[4], x1 = 0.8313	1.52 ± 0.022	–
[4], x1 = 0.8721	1.27 ± 0.021	–
[4], x1 = 0.9068	0.981 ± 0.021	–
[4], x1 = 0.9426	0.656 ± 0.021	–
[4], x1 = 0.973	0.338 ± 0.021	–

CCCCC(=O)OC [methyl pentanoate]
Details	mass density [kg/m3]	refractive index
[1]	884.58 ± 0.46	–
[2]	–	1.3947 ± 0.0008

[1]
Details	vapor or sublimation pressure [kPa]
364.75 K	32.01 ± 0.11
365.85 K	33.33 ± 0.11
366.98 K	34.67 ± 0.12
368.03 K	36 ± 0.12
369.05 K	37.33 ± 0.12
370.1 K	38.66 ± 0.12
371.03 K	40.01 ± 0.12
371.97 K	41.33 ± 0.12
372.92 K	42.66 ± 0.13
373.81 K	43.99 ± 0.13
374.7 K	45.33 ± 0.13
375.56 K	46.64 ± 0.13
376.4 K	48.01 ± 0.13
377.18 K	49.33 ± 0.13
378.01 K	50.64 ± 0.13
378.82 K	51.98 ± 0.14
379.59 K	53.33 ± 0.14
380.33 K	54.67 ± 0.14
381.1 K	56 ± 0.14
381.82 K	57.33 ± 0.14
382.51 K	58.67 ± 0.14
383.29 K	59.99 ± 0.15
383.95 K	61.33 ± 0.15
384.62 K	62.68 ± 0.15
385.25 K	63.99 ± 0.15
385.95 K	65.33 ± 0.15
386.57 K	66.66 ± 0.16
387.18 K	67.99 ± 0.16
387.84 K	69.32 ± 0.16
388.44 K	70.66 ± 0.16
389.08 K	71.99 ± 0.16
389.65 K	73.33 ± 0.16
390.24 K	74.65 ± 0.16
390.82 K	76 ± 0.17
391.39 K	77.3 ± 0.17
391.94 K	78.66 ± 0.17
392.5 K	79.99 ± 0.17
393.04 K	81.33 ± 0.17
393.61 K	82.66 ± 0.17
394.12 K	83.98 ± 0.18
394.65 K	85.33 ± 0.18
395.16 K	86.66 ± 0.18
395.69 K	88 ± 0.18
396.2 K	89.33 ± 0.18
396.7 K	90.67 ± 0.19
397.18 K	91.98 ± 0.19
397.67 K	93.35 ± 0.19
398.2 K	94.67 ± 0.19
398.65 K	95.99 ± 0.19
399.15 K	97.32 ± 0.19
399.59 K	98.66 ± 0.2
400.07 K	99.99 ± 0.2
400.54 K	101.32 ± 0.2
401 K	102.66 ± 0.2
401.45 K	104.01 ± 0.2
401.91 K	105.33 ± 0.2
402.3 K	106.66 ± 0.21
402.75 K	107.99 ± 0.21
403.2 K	109.32 ± 0.21
403.62 K	110.58 ± 0.21
404.06 K	111.98 ± 0.21
404.45 K	113.3 ± 0.22
404.88 K	114.66 ± 0.22
405.31 K	115.99 ± 0.22
405.71 K	117.32 ± 0.22
406.12 K	118.69 ± 0.22
406.52 K	119.98 ± 0.22
406.91 K	121.36 ± 0.23
407.3 K	122.64 ± 0.23
407.7 K	124 ± 0.23
408.08 K	125.32 ± 0.23
408.49 K	126.67 ± 0.23
408.85 K	127.99 ± 0.23
409.23 K	129.32 ± 0.23
409.62 K	130.64 ± 0.24
409.98 K	132.01 ± 0.24
410.35 K	133.34 ± 0.24
410.71 K	134.64 ± 0.24
411.07 K	135.99 ± 0.24
411.44 K	137.33 ± 0.25
411.8 K	138.63 ± 0.25
412.15 K	139.99 ± 0.25
412.49 K	141.33 ± 0.25
412.85 K	142.67 ± 0.25
413.21 K	143.99 ± 0.25
413.55 K	145.32 ± 0.26
413.89 K	146.65 ± 0.26
414.22 K	148 ± 0.26
414.55 K	149.34 ± 0.26
414.91 K	150.65 ± 0.26
415.23 K	151.99 ± 0.27
415.57 K	153.32 ± 0.27
415.87 K	154.61 ± 0.27
416.21 K	155.97 ± 0.27
416.55 K	157.29 ± 0.27
416.87 K	158.66 ± 0.27
417.18 K	159.97 ± 0.28

CCCCC(=O)OC [methyl pentanoate] + CCCCCCC
[3]
Details	mass density [kg/m3]
x1 = 0.0172	682.12 ± 0.74
x1 = 0.0613	689.72 ± 0.76
x1 = 0.1404	703.9 ± 0.77
x1 = 0.2074	716.09 ± 0.8
x1 = 0.2867	731.09 ± 0.82
x1 = 0.3552	744.33 ± 0.84
x1 = 0.4135	755.77 ± 0.86
x1 = 0.4931	771.88 ± 0.88
x1 = 0.5619	786.14 ± 0.91
x1 = 0.631	800.74 ± 0.93
x1 = 0.7038	816.52 ± 0.95
x1 = 0.7607	828.99 ± 0.98
x1 = 0.8392	846.84 ± 1
x1 = 0.9149	864.2 ± 1
x1 = 0.9531	873.23 ± 1.1
x1 = 0.9836	880.67 ± 1.1

CCC(=O)OC [methyl propanoate]
Details	Normal boiling temperature [°C]	mass density [kg/m3]	refractive index
[1]	78.50 ± 0.2	908.59 ± 0.47	–
[2]	–	–	1.3745 ± 0.0008

CCC(=O)OC [methyl propanoate] + CCCCCCC
[3]
Details	mass density [kg/m3]
x1 = 0.064	687.65 ± 0.62
x1 = 0.1117	694.35 ± 0.64
x1 = 0.1561	700.97 ± 0.69
x1 = 0.2628	718.15 ± 0.74
x1 = 0.365	736.5 ± 0.8
x1 = 0.4343	750.1 ± 0.88
x1 = 0.5113	766.46 ± 0.94
x1 = 0.5683	779.43 ± 1
x1 = 0.6351	795.65 ± 1.1
x1 = 0.7017	812.9 ± 1.1
x1 = 0.7543	827.61 ± 1.2
x1 = 0.8136	845.12 ± 1.3
x1 = 0.8664	861.73 ± 1.4
x1 = 0.903	873.85 ± 1.4
x1 = 0.9689	896.98 ± 1.5
